# From the METLIN SMRT retention time set (Domingo-Almenara et al. 2019)
# Test: gradient 5% acetonitrile 3 min, to 50% in 2 min, to 85% in 15 min, held 3 min, 100 µL/min
# Conditions: column: Zorbax Extend-C18 2.1 x 50 mm; eluents: water / acetonitrile, 0.1% formic acid
# Method in brief: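 The system's dead and dwell volumes were 40 μL and 900 μL, with a Zorbax Extend-C18 column (2.1 × 50 mm, 1.8 μm) run at 100 μL/min in water and acetonitrile containing 0.1% formic acid each. Pure standards were analyzed in mixtures of ~100 molecules by HPLC–quadrupole time-of-flight mass spectrometry in positive and negative ionization mode. Retention time was assigned from computationally picked, manually inspected adduct peaks.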
row,SMILES,RP-LC retention time
1,CN(C)C[C@@H]1CN(C2CCOCC2)C[C@H]1NS(=O)(=O)c1ccc(C#N)cc1,524 s
2,CN(C)S(=O)(=O)c1ccc2c(c1)N(CC(=O)NCCc1ccccc1)C(=O)C1CCCCN21 (stereo unspecified),918 s
3,N#Cc1ccsc1NC(=O)c1ccc(S(=O)(=O)N2CCOCC2)cc1,749 s
4,Cc1ccc(CC(=O)NC(C)C(=O)Nc2nc3ccccc3[nH]2)cc1 (stereo unspecified),665 s
5,O=C(Cc1ccccc1F)N1CCc2[nH]cnc2C1c1ccccc1 (stereo unspecified),632 s
6,Cc1cc(N2CCCC2)n2nc(CN3CCN(c4ccccn4)CC3)nc2n1,553 s
7,Cc1nc(-c2cc(S(=O)(=O)NCc3ccc(OC(C)C)cc3)c(C)s2)sc1C,1150 s
8,CNC(=O)N1CC(c2nc(-c3ccc(F)cc3)no2)C2(CCOCC2)C1 (stereo unspecified),723 s
9,Cc1ccc(-c2ccc(-n3nc(C)c(S(=O)(=O)N4CCN(C)CC4)c3C)nn2)cc1C,731 s
10,COc1ccc(NC(=O)Cn2nc(N3CCCC3)c3ccccc3c2=O)cc1,847 s
11,CCCN1CCN(C(=O)CC2CCN(C(=O)c3[nH]c(C)c(C(=O)OC(C)C)c3C)CC2)CC1,624 s
12,O=C(NCc1cc(F)cc(F)c1)C1CCCN(c2nccnc2Sc2ccccc2)C1 (stereo unspecified),1030 s
13,OC(COc1ccc(Br)cc1Br)CN1CCCC1 (stereo unspecified),576 s
14,Clc1cccc(-c2nc(-c3ccc4nncn4c3)no2)c1,921 s
15,CC(C)Oc1ccc(CN2CC(N(Cc3ccncc3)S(C)(=O)=O)C2)cc1,571 s
16,CC1CCN(CCCC(=O)c2ccc(F)cc2)CC1,685 s
17,CCCc1noc(-c2ccc3nnc(CC(=O)Nc4ccc(C)cc4F)n3c2)n1,940 s
18,CCSc1nnc(NC(=O)CSC2=NN3CCCC(=O)N=C3S2)s1,683 s
19,CCOc1ccccc1NS(=O)(=O)c1ccccc1-c1nc(-c2cccc(F)c2)no1,1280 s
20,O=C(Cn1ccc2ccc(N3CCOCC3)nc21)NCc1cccc(Br)c1,918 s
21,Cc1ccc(Cl)cc1N1CCN(c2ccc3cc(S(=O)(=O)N4CCOCC4)ccc3n2)CC1,1200 s
22,CCOC(=O)c1nc(NCc2ccc(OC(C)C)cc2)c2c(C)noc2n1,1000 s

row,SMILES,RP-LC retention time
1,Nc1nc(-c2ccc(F)cc2)nn1C(=O)c1ccc(F)cc1,969 s
2,CC1CCCN(c2nccn3c(=O)n(CC(=O)Nc4ccc(Br)cc4F)nc23)C1 (stereo unspecified),911 s
3,COc1ccc(NC(=O)Cn2nc3cc(C)nc(Nc4cc(C)cc(C)c4)n3c2=O)cc1,869 s
4,O=C(C1c2ccccc2CCN1C(=O)C1CC1)N1CCN(c2ccc(F)cc2)CC1 (stereo unspecified),943 s
5,CCC1CCCCN1C(=O)CN1C(=O)CCCc2cc(S(=O)(=O)N3CCC(C)CC3)ccc21 (stereo unspecified),1040 s
6,CCCCc1ccc(NC(=O)C2CCN(C(=O)C(C)(C)C)CC2)cc1,1020 s
7,CC1CCCCN1CCCNC(=O)CCC(=O)N1CCc2c(c(C(=O)N3CCCC3)nn2C)C1 (stereo unspecified),586 s
8,Cc1nc(-c2cn(C(C)C)c3ncccc23)sc1C(=O)N1CCCCC1,958 s
9,O=C(Cn1c(=O)c2cccn2c2ccccc21)Nc1cccc(Cl)c1,904 s
10,C[C@@H]1CCC2[C@](C)(CO)[C@@H](O)CC[C@]2(C)[C@]12CCC(CO)(CCO)O2 (stereo partly specified),829 s
11,COc1ccc(-c2noc(Cn3ccn(-c4c(C)cccc4C)c(=O)c3=O)n2)cc1OC,797 s
12,O=c1ccc(-c2nc(-c3cccc(Cl)c3)no2)cn1Cc1ccncc1,722 s
13,COc1ccc(C2(c3nc(-c4cccc(-c5ccnn5C)c4)no3)CC2)cc1,1150 s
14,CN(C)CCNC(=O)c1cc(S(=O)(=O)N2CCOCC2)ccc1Cl,563 s
15,COCCCNC(=O)C1CCN(c2cnc3nc(C)c(C)nc3c2)CC1,574 s
16,CSc1ccc(CCNC(=O)C2CCCN(C(=O)c3cc(C)cc(C)c3)C2)cc1 (stereo unspecified),936 s
17,COCCN(CCOC)C(=O)C12CCC(C)(C(=O)C1)C2(C)C (stereo unspecified),706 s
18,COc1ccc(NC(=O)Cn2nc3c(Oc4ccccc4C)nccn3c2=O)cc1,790 s
19,CCCCNC(=O)C1CCN(S(C)(=O)=O)c2ccccc2O1 (stereo unspecified),728 s
20,Cc1cccc(Cn2c(CN3CCC(C(=O)NC4CCCCCCC4)CC3)cc3ccccc32)c1,936 s
21,Cn1c(C2CCN(C(=O)Nc3ccc(F)cc3F)CC2)cc(=O)n2nccc12,647 s
22,CC(=O)Nc1ccc(S(=O)(=O)N2CCc3c(c(-c4nnc(-c5ccccc5)o4)nn3C)C2)cc1,775 s

row,SMILES,RP-LC retention time
1,CCC1CN1P1(=O)OCC(C)([N+](=O)[O-])CO1 (stereo unspecified),721 s
2,COc1ccc(CCC(=O)N2CCCC(C)(C(=O)NCc3ccc(C)cc3)C2)cc1 (stereo unspecified),932 s
3,Nc1nc(CN2CCN(c3ccccn3)CC2)nc(Nc2ccc(Oc3ccccc3)cc2)n1,669 s
4,Cc1sc2ccn(CC(C)C)c(=O)c2c1C(=O)NCc1cc(F)ccc1F,1040 s
5,Cc1c(C)n(-c2ccccc2)c2ncn(CC(=O)NC3CCCC3)c(=O)c12,799 s
6,CCN1CCN(C(=O)Cc2c(C)nc3nc(-c4ccccc4)nn3c2C)CC1,589 s
7,CCN(CC)CCNC(=O)C1c2ccccc2C(=O)N2CCc3cc(OC)c(OC)cc3C12 (stereo unspecified),599 s
8,Cc1ccc(Cl)cc1NC(=O)N1CCC(OC2CCN(S(C)(=O)=O)CC2)CC1,801 s
9,Cc1ccc(F)cc1NS(=O)(=O)c1ccc2c(c1)C(=O)N(C)c1ncccc1O2,924 s
10,O=C(NCc1ccncc1)c1ccc(-c2ccc(N3CCSCC3)nc2)cc1,574 s
11,O=C(NC1CCCCC1)N1CC(c2nnc(-c3ccncc3)o2)C2(CCOCC2)C1 (stereo unspecified),621 s
12,Cc1cc(F)cc2c(=O)c3c([nH]c12)CCN(CC(=O)Nc1ccc2c(c1)OCO2)C3,615 s
13,Cc1nc(Cn2cccc2C(=O)Nc2ccc(Cl)cc2F)no1,893 s
14,CCCn1c(=O)c2c(ncn2C)n(CCC)c1=O,785 s
15,COc1ccc(-c2cn3ccn(-c4ccc(C)cc4C)c(=O)c3n2)cc1OC,797 s
16,CCNc1cc(N2CCC(CCC(=O)N3CCCN(c4ncccn4)CC3)CC2)ncn1,596 s
17,COc1ccccc1-c1nc2sc3c(c2c(=O)[nH]1)CCCC3,1150 s
18,O=C([C@@H]1C[C@H](Oc2ccccc2)CN1C(=O)c1cccs1)N1CCCC1,767 s
19,CCn1cc(S(=O)(=O)N2CCC(c3noc(-c4ccncc4)n3)C2)cn1 (stereo unspecified),707 s
20,CCn1cnc2cc(CNC(=O)c3ccsc3)ccc21,572 s
21,Cc1nc2ccccc2c(=O)n1Cc1noc(-c2cccc(Br)c2)n1,948 s
22,CCN(CC)C(=O)c1cc(C)nc2c1c(=O)n(Cc1ccccc1)c(=O)n2C,884 s
